According to patent US7521427B2 (Georgia Tech Research Corporation, priority 2004, dated 2009):
Like-named read-outs stand apart in the source and are kept apart here.

Assays:
calpain I = biological target: T1, calpain I (Homo sapiens, UniProt P07384); assay: Calpain I irreversible inhibition assay; format: biochemical, porcine; conditions: 23° C.; for kinact/KI: read-out: kobs/[I] Calpain I
T1 construct: purchased Calbiochem (La Jolla, Calif.)
T1 sequence (P07384 1-714): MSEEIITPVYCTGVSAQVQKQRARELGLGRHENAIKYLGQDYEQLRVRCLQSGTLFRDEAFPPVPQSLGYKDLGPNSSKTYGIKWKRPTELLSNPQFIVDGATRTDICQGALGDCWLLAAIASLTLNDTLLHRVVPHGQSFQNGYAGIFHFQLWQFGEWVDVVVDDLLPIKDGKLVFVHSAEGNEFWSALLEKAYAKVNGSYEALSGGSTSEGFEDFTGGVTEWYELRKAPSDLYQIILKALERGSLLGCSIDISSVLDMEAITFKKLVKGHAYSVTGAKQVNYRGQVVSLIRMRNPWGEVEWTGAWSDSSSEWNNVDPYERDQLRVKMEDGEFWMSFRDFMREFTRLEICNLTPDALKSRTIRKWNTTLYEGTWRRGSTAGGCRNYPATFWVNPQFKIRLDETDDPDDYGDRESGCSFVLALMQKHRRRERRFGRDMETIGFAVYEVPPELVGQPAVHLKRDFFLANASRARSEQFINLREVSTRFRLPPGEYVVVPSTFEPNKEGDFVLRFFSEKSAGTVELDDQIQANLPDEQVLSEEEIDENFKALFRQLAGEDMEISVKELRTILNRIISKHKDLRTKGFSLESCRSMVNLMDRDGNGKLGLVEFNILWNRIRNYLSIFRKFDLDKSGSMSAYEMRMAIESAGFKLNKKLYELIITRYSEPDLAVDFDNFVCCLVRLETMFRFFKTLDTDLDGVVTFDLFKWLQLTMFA
T1 sequence (P04632 1-268 partner): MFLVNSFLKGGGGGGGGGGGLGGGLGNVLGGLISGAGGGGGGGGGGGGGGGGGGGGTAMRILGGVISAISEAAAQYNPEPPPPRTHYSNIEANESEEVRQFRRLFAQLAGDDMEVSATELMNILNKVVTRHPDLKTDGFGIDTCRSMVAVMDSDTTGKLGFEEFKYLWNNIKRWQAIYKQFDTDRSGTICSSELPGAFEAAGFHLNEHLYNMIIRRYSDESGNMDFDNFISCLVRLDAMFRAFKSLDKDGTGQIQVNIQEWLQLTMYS
Protocol: Calpain I was purchased from Calbiochem (La Jolla, Calif.) in a solution of 30% glycerol at a concentration of 6.96 μM and stored at −20° C. prior to use. The calpain I assay was conducted with 235 μL of a solution of 50 mM Hepes, […], at pH 7.5 (calpain I buffer), 6.5 μL of Suc-Leu-Tyr-AMC substrate solution in DMSO and 4.2 μL of the enzyme solution (6.96 μM) at 23° C. The enzymatic activity was monitored by following the change in fluorescence for 10 min at 465 nm. The k2 values were obtained by non-linear regression analysis and corrected for substrate (1+[S]/KM=1.274). All assays were run in duplicate and the standard deviation was determined.

[1] = biological target: purified recombinant rhodesain (Trypanosoma brucei rhodesiense, UniProt Q95PM0); assay: Rhodesain IC50 determination; format: biochemical, Trypanosoma brucei rhodensiense; conditions: for IC50: rhodesain 3 nM, 5 minutes preincubation at room temperature, pH 5.5
Protocol: (§1) Inhibitors were screened for effectiveness against purified recombinant cruzain and rhodesain. Cruzain (2 nM) or rhodesain (3 nM) was incubated with 0.0001 to 1 μM inhibitor in 100 mM sodium acetate buffer, pH 5.5 and 5 mM DTT (buffer A), for 5 minutes at room temperature. Buffer A containing Cbz-Phe-Arg-AMC (Bachem, KM=1 μM, AMC=7-amino-4-methylcoumarin) was added to the enzyme and inhibitor to give 20 or 10 μM substrate concentration for cruzain and rhodesain, respectively, in 200 μL. The increase in fluorescence (excitation at 355 nm and emission at 460 nm) was followed with an automated microtiter plate spectrofluorimeter (Molecular Devices, Flex Station). Inhibitor stock solutions were prepared at 20 mM in DMSO and serial dilutions were made in DMSO (0.7% DMSO in assay). Controls were performed using enzyme alone, and enzyme with DMSO. IC50 values were determined graphically using inhibitor concentrations in the linear portion of a plot of enzyme activity versus log [I] (7 concentrations tested with at least 2 in the linear range).

[2] = biological target: purified recombinant cruzain (Trypanosoma cruzi, UniProt P25779); assay: Cruzain IC50 determination; format: biochemical; conditions: for IC50: cruzain 2 nM, 5 minutes preincubation at room temperature, pH 5.5
Protocol: as §1

cathepsin B [3] = biological target: T2, cathepsin B (Homo sapiens, UniProt P07858); assay: Cathepsin B incubation method inhibition assay; format: biochemical; conditions: pH 6.0, 23° C., N.I. = no inhibition after 20 minutes of incubation
Protocol: (§2) The incubation method was used to measure the irreversible inhibition of papain and cathepsin B. With cathepsin B, 30 μL of a stock inhibitor solution was added to 300 μL of a 0.1 M potassium phosphate buffer containing 1.25 mM EDTA, 0.01% Brij 35 at pH 6.0, followed by the addition of 30 μL of a freshly prepared cathepsin B solution (approximate concentration 6.98×10^−3 μg/μL) in the same potassium phosphate buffer containing 1 mM DTT (freshly prepared). Aliquots (50 μL) from the inhibition mixture were withdrawn at various time intervals and added to 200 μL of a 0.1 M potassium phosphate buffer containing 1.25 mM EDTA, 0.01% Brij 35 at pH 6.0, and the substrate Cbz-Arg-Arg-AMC (499 μM). The release of 7-amino-4-methylcoumarin was monitored (λex=360 nm, λem=465 nm) using a Tecan Spectra Fluor microplate reader. Pseudo first-order inactivation rate constants were obtained from plots of In vt/vo versus time.

papain = biological target: T3, papain (Carica papaya, UniProt P00784); assay: Papain incubation method inhibition assay; format: biochemical; conditions: for kinact/KI: pH 7.5, read-out: kobs/[I] Papain, incubation method; for kobs/[I] Papain: incubation method, pH 7.5
T3 construct: purchased
T3 sequence (P00784 134-345): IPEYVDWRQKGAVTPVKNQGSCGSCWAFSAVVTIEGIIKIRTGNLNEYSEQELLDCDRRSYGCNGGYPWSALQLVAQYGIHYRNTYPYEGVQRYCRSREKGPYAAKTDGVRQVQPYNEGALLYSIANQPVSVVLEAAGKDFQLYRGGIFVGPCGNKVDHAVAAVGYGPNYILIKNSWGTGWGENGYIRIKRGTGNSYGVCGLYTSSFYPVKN
Protocol: as §2
The incubation method was also used for commercially available papain. The inhibition incubation buffer for papain was 50 mM Hepes buffer at pH 7.5, containing 2.5 mM DTT (dithiothreitol) and 2.5 mM EDTA. The assay used the substrate Cbz-Phe-Arg-pNA (53.7 μM) in the same buffer. The approximate concentration of papain added to the incubation buffer was 0.29 mg/mL. The release of p-nitroanilide was monitored at 405 nm with a Molecular Devices Thermomax microplate reader. All assays were run in duplicate.

cathepsin L [4] = biological target: T4, cathepsin L (Homo sapiens, UniProt P07711); assay: Cathepsin L progress curve inhibition assay; format: biochemical; conditions: corrected for substrate; for kinact/KI: pH 5.5, progress curve method, read-out: kobs/[I] Cathepsin L
T4 construct: purchased Athens Research & Technology (Athens, Ga.)
Protocol: Cathepsin L was purchased from Athens Research & Technology (Athens, Ga.) in a 20 mM malonate buffer solution at pH 5.5 with 1 mM EDTA and 400 mM NaCl with a specific activity of 4.133 U/mg. The progress of cathepsin L inhibition was conducted with 243 μL of a solution of 0.25 M NaAc, 2 mM EDTA, 0.015% Brij, 5 mM DTT (dithiothreitol) at pH 5.5, 4 μL of Cbz-Phe-Arg-AMC substrate solution (16 mM) in DMSO (2% final concentration). Activity was monitored by following the change in fluorescence for 20 min at 465 nm. The kobs values were obtained by non-linear regression analysis and corrected for substrate (1+[S]/KM=1.274). All assays were run in duplicate and the standard deviation was determined.

cathepsin L [5] = biological target: T4, cathepsin L; conditions: irreversible inhibition; cited from earlier work
cathepsin B [6] = biological target: T2, cathepsin B; conditions: irreversible inhibition; cited from earlier work
cathepsin H = biological target: T5, cathepsin H (Homo sapiens, UniProt P09668); conditions: irreversible inhibition; cited from earlier work
T5 sequence (P09668 98-335): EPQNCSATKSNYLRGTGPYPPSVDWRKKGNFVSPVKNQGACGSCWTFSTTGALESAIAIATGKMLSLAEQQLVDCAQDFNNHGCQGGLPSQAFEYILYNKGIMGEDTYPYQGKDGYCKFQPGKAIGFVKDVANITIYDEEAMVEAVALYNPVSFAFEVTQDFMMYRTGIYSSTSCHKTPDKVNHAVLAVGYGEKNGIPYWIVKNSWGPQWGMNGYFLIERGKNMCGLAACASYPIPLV

[7] = pH 7.5, incubation method, plots of ln vt/v0 vs time
[8] = pH 7.5, progress curve method, corrected for substrate

purified recombinant cruzain, sequence (P25779 123-467): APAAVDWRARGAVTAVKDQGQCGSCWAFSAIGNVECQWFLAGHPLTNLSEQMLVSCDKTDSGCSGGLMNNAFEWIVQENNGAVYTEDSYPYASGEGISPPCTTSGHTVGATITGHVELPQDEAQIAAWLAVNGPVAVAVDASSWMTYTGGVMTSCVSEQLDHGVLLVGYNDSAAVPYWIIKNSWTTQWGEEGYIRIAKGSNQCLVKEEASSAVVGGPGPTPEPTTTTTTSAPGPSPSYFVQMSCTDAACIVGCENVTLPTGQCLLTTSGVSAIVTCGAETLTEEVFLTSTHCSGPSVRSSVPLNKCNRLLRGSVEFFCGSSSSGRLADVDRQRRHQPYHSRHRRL
T4 sequence (P07711 114-333): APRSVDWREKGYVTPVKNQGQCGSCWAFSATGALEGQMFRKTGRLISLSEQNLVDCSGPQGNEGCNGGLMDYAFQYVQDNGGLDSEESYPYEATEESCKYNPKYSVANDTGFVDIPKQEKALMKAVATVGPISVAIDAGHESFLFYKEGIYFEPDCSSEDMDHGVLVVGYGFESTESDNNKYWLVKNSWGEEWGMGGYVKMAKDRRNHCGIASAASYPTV
purified recombinant rhodesain, sequence (Q95PM0 entry or part of it): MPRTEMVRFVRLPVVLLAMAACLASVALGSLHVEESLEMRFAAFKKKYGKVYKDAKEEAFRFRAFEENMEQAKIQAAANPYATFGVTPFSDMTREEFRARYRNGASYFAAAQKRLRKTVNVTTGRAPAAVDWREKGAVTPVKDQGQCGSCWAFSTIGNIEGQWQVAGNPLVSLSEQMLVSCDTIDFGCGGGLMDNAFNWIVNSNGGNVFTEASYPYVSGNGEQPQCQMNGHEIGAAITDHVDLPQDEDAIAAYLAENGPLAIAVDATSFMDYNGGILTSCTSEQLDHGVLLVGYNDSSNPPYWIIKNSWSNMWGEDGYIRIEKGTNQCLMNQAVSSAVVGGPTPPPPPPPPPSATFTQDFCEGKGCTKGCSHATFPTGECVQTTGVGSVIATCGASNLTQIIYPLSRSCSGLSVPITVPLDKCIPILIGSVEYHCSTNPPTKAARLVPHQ

## C[C@H](NC(=O)OCc1ccccc1)C(=O)NC(=CCS(=O)(=O)c1ccccc1)Cc1ccccc1 (mixture of isomers) [Cbz-Ala-Phe-AS-Ph, Phenyl-3-(N-carbobenzyloxyalanyl)amino-4-phenylbut-2-enyl Sulfone]
Calpain I; [7]
  kinact/KI: 3 M⁻¹ s⁻¹
[1]; IC50 Rhodesain
  IC50: > 10000 nM
[2]; read-out: IC50 Cruzain
  IC50: > 10000 nM
Cathepsin B [3]
  kobs/[I] Cathepsin B: N.I.^f
papain
  kinact/KI: 9 M⁻¹ s⁻¹
Cathepsin L [4]
  kinact/KI: 183 ± 10 M⁻¹ s⁻¹

## CC(C)[C@H](NC(=O)OCc1ccccc1)C(=O)NC(=CCS(=O)(=O)c1ccccc1)Cc1ccccc1 (mixture of isomers) [Cbz-Val-Phe-AS-Ph, Phenyl-3-(N-carbobenzyloxyvalyl)amino-4-phenylbut-2-enyl Sulfone]
Calpain I; [7]
  kinact/KI: 3 M⁻¹ s⁻¹
[1]; IC50 Rhodesain
  IC50: 5000 nM
[2]; read-out: IC50 Cruzain
  IC50: 6000 nM
Cathepsin B [3]
  kobs/[I] Cathepsin B: N.I.
papain
  kinact/KI: 6 ± 1 M⁻¹ s⁻¹
Cathepsin L [4]
  kinact/KI: 310 ± 52 M⁻¹ s⁻¹

## CC(C)C[C@H](NC(=O)OCc1ccccc1)C(=O)NC(=CCS(=O)(=O)c1ccccc1)Cc1ccccc1 (single isomer, unassigned) [Cbz-Leu-Phe-AS-Ph (Isomer A), Phenyl-3-(N-carbobenzyloxyleucyl)amino-4-phenylbut-2-enyl Sulfone]
Calpain I; [7]
  kinact/KI: 23 ± 4 M⁻¹ s⁻¹
[1]; IC50 Rhodesain
  IC50: 40 nM
[2]; read-out: IC50 Cruzain
  IC50: 60 nM
Cathepsin B [3]
  kobs/[I] Cathepsin B: N.I.
papain
  kobs/[I] Papain: 49 M⁻¹ s⁻¹
Cathepsin L [4]
  kinact/KI: 700 ± 43 M⁻¹ s⁻¹

## CC(C)C[C@H](NC(=O)OCc1ccccc1)C(=O)NC(=CCS(=O)(=O)c1ccccc1)Cc1ccccc1 (single isomer, unassigned) [Cbz-Leu-Phe-AS-Ph (Isomer B), Phenyl-3-(N-carbobenzyloxyleucyl)amino-4-phenylbut-2-enyl Sulfone]
Calpain I; [8]
  kinact/KI: 564 ± 32 M⁻¹ s⁻¹
Calpain I; progress curve method, corrected for substrate, pH 7.5
  kobs/[I] Calpain I: 564 M⁻¹ s⁻¹
[1]; IC50 Rhodesain
  IC50: 180 nM
[2]; read-out: IC50 Cruzain
  IC50: 300 nM
Cathepsin B [3]
  kobs/[I] Cathepsin B: N.I.
papain
  kobs/[I] Papain: 15 ± 1 M⁻¹ s⁻¹
Cathepsin L [4]; progress curve method, pH 5.5
  kobs/[I] Cathepsin L: 1062 M⁻¹ s⁻¹

## CC(C)CCNC(=O)[C@H](CC(C)C)NC(=O)/C=C/C(=O)O (stereo in doubt) [fumarate derivative of E-64c, trans-HOOCCH═CH—CO-Leu-NH(CH2)2CH(CH3)2]
Cathepsin L [5]
  kapp cathepsin L: 2272 M⁻¹ s⁻¹
Cathepsin B [6]
  kapp cathepsin B: 625 M⁻¹ s⁻¹
Cathepsin H
  inhibition of cathepsin H: inhibits

## CC(C)C[C@H](NC(=O)OCc1ccccc1)C(=O)N[C@H](C=CS(=O)(=O)c1ccccc1)Cc1ccccc1 [reference compound]
Calpain I; [8]
  kinact/KI: 550 ± 2 M⁻¹ s⁻¹
[1]; ratio of IC50 values
  fold less potent with rhodesain than the corresponding allyl sulfone Cbz-Leu-Phe-AS-Ph: > 12 fold
[1]; read-out: IC50 Rhodesain
  IC50: 500 nM
[2]; IC50 Cruzain
  IC50: 2000 nM
[2]; ratio of IC50 values
  fold less potent with cruzain than the corresponding allyl sulfone Cbz-Leu-Phe-AS-Ph: over 30 fold
Cathepsin B [3]
  kobs/[I] Cathepsin B: N.I.
papain
  kinact/KI: 10 M⁻¹ s⁻¹
Cathepsin L [4]
  kinact/KI: 219 ± 96 M⁻¹ s⁻¹
